Patent US20200405696A1, “INHIBITORS OF INDOLEAMINE 2,3-DIOXYGENASE AND/OR TRYPTOPHAN 2,3-DIOXYGENASE” (IDORSIA PHARMACEUTICALS LTD, priority 2018, published 2020)

Columns and labels:
[1] = molecular target: T1, Recombinant full-length human IDO1 (Homo sapiens, UniProt P14902); assay: IDO1 enzymatic assay (NFK quantified by LCMS); format: biochemical; details: 2 nM enzyme, 5 μM L-tryptophan, pH6.5, 30 minutes pre-incubation at RT; mean values when measured multiple times; read-out: hIDO activity (IC50 in nM)
T1 construct: Recombinant full-length human IDO1 with a N-terminal hexahistidine tag; hexahistidine (His6) (N); made in house; host or cells: E. coli
T1 sequence (P14902 whole entry): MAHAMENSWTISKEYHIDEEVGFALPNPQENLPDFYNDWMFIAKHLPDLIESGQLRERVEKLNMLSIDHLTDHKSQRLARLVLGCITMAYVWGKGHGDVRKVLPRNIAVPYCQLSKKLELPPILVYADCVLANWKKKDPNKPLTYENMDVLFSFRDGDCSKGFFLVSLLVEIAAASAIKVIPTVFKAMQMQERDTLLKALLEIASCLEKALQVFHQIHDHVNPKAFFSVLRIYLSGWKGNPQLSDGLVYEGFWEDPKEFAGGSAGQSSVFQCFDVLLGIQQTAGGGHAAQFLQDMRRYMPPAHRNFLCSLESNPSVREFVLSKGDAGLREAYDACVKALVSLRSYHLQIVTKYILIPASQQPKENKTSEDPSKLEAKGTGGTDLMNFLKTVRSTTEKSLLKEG
How it was run: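 His-tagged human IDO1 (2 nM) in pH 6.5 phosphate buffer with ascorbate, methylene blue and catalase was preincubated with compound (10 μM–0.5 nM, 0.6% DMSO) for 30 min at RT. The reaction then ran with 5 μM L-Trp for 30 min. NFK was measured by LCMS against a d5-Trp standard, and IC50 was obtained by four-parameter fit.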

[2] = molecular target: T2, Recombinant human TDO comprising amino acids 19-407 (Homo sapiens, UniProt P48775); assay: TDO2 enzymatic assay (NFK quantified by LCMS); format: biochemical; details: 15 nM enzyme, 200 μM L-tryptophan, pH7, 30 minutes pre-incubation at RT; mean values when measured multiple times; read-out: hTDO activity (IC50 in nM)
T2 construct: Recombinant human TDO comprising amino acids 19-407 with a N-terminal hexahistidine tag; hexahistidine (His6) (N); made in house; host or cells: E. coli
T2 sequence (P48775 19-406 limits assumed): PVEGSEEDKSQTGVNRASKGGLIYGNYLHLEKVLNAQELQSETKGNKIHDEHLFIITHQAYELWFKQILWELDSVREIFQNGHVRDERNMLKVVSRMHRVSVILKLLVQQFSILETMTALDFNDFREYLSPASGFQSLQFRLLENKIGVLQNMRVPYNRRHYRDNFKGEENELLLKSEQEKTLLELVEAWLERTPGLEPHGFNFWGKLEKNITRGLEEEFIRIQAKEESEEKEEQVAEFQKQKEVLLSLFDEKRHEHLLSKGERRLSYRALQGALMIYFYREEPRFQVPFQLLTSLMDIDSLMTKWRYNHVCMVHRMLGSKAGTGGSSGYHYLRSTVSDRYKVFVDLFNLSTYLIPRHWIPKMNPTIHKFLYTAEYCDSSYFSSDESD
How it was run: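 NFK formed over 30 min at RT from 200 μM L-tryptophan was measured by LCMS, normalized to d5-tryptophan, after compound (0.5 nM–10 μM, duplicates, 0.6% DMSO) was preincubated 30 min with 15 nM recombinant His-tagged TDO 19-407 in phosphate buffer pH 7. IC50 from four-parameter logistic fit; repeats averaged.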

Compound	IC50 [1]	IC50 [2]
COc1ncc(-n2cc(C(O)c3c(C4CC4)sc4cncn34)nn2)cc1C (racemic) [Example 71, rac-(2-Cyclopropyl-imidazo[5,1-b]thiazol-3-yl)-[1-(6-methoxy-5-methyl-pyridin-3-yl)-1H-[1,2,3]triazol-4-yl]-methanol]	55.9 nM	> 10200 nM
CCc1sc2cncn2c1C(O)c1cn(-c2ccc(C(=O)NCCCO)cc2)nn1 (racemic) [Example 115, rac-4-{4-[(2-Ethyl-imidazo[5,1-b]thiazol-3-yl)-hydroxy-methyl]-[1,2,3]triazol-1-yl}-N-(3-hydroxy-propyl)-benzamide]	12.7 nM	> 10200 nM
CNC(=O)c1ccc(-n2cc(C(O)c3c(C4CC4)sc4cncn34)nn2)cc1 (racemic) [Example 182, rac-4-{4-[(2-Cyclopropyl-imidazo[5,1-b]thiazol-3-yl)-hydroxy-methyl]-[1,2,3]triazol-1-yl}-N-methyl-benzamide]	26 nM	> 10200 nM
O=C(Nc1ccc(-n2cc(C(O)c3c(C4CC4)sc4cncn34)nn2)cc1)c1ccccc1 (racemic) [Example 189, rac-N-(4-{4-[(2-Cyclopropyl-imidazo[5,1-b]thiazol-3-yl)-hydroxy-methyl]-[1,2,3]triazol-1-yl}-phenyl)-benzamide]	30.6 nM	> 10200 nM
OC(c1ccc(-c2cccnc2)s1)c1c(C2CC2)sc2cncn12 (racemic) [Example 160, rac-(2-Cyclopropyl-imidazo[5,1-b]thiazol-3-yl)-(5-pyridin-3-yl-thiophen-2-yl)-methanol]	230 nM	5320 nM
OC(c1cn(-c2ccc(C(F)(F)F)cc2)nn1)c1c(C2CC2)sc2cncn12 (racemic) [Example 6, rac-(2-Cyclopropyl-imidazo[5,1-b]thiazol-3-yl)-[1-(4-trifluoromethyl-phenyl)-1H-[1,2,3]triazol-4-yl]-methanol]	119 nM	> 10200 nM
Cc1ccccc1-n1cc(C(O)c2c(C3CC3)sc3cncn23)nn1 (racemic) [Example 3, rac-(2-Cyclopropyl-imidazo[5,1-b]thiazol-3-yl)-(1-o-tolyl-1H-[1,2,3]triazol-4-yl)-methanol]	49.2 nM	> 10200 nM
CCc1sc2cncn2c1C(O)c1cn(-c2ccccc2)nn1 (racemic) [Example 12, rac-(2-Ethyl-imidazo[5,1-b]thiazol-3-yl)-(1-phenyl-1H-[1,2,3]triazol-4-yl)-methanol]	20.8 nM	6740 nM
CCOc1ncc(-n2cc(C(O)c3c(C4CC4)sc4cncn34)nn2)cc1C(F)(F)F (racemic) [Example 76, rac-(2-Cyclopropyl-imidazo[5,1-b]thiazol-3-yl)-[1-(6-ethoxy-5-trifluoromethyl-pyridin-3-yl)-1H-[1,2,3]triazol-4-yl]-methanol]	363 nM	> 10200 nM
CCc1sc2cncn2c1C(O)c1cn(-c2ccc(C(=O)NCCO)cc2)nn1 (racemic) [Example 118, rac-4-{4-[(2-Ethyl-imidazo[5,1-b]thiazol-3-yl)-hydroxy-methyl]-[1,2,3]triazol-1-yl}-N-(2-hydroxy-ethyl)-benzamide]	15.8 nM	9550 nM
COc1ccc(-n2cc(C(O)c3c([C@@H]4C[C@@H]4F)sc4cncn34)nn2)cc1 (relative stereo) [Example 93, [2-(cis-2-Fluoro-cyclopropyl)-imidazo[5,1-b]thiazol-3-yl]-[1-(4-methoxy-phenyl)-1H-[1,2,3]triazol-4-yl]-methanol]	25 nM	> 10200 nM
CCN(C)C(=O)c1ccc(-n2cc(C(O)c3c(C4CC4)sc4cncn34)nn2)cc1 (racemic) [Example 191, rac-4-{4-[(2-Cyclopropyl-imidazo[5,1-b]thiazol-3-yl)-hydroxy-methyl]-[1,2,3]triazol-1-yl}-N-ethyl-N-methyl-benzamide]	109 nM	> 10200 nM
OC(c1cn(-c2ccc(OCC3CCOCC3)cc2)nn1)c1c(C2CC2)sc2cncn12 (racemic) [Example 87, rac-(2-Cyclopropyl-imidazo[5,1-b]thiazol-3-yl)-{1-[4-(tetrahydro-pyran-4-ylmethoxy)-phenyl]-1H-[1,2,3]triazol-4-yl}-methanol]	20.7 nM	> 10200 nM
CCc1sc2cncn2c1C(O)c1cn(-c2ccc(C3(CO)CC3)cc2)nn1 (racemic) [Example 48, rac-(2-Ethyl-imidazo[5,1-b]thiazol-3-yl)-{1-[4-(1-hydroxymethyl-cyclopropyl)-phenyl]-1H-[1,2,3]triazol-4-yl}-methanol]	60.6 nM	> 10200 nM
COc1ccccc1-n1cc(C(O)c2c(C3CC3)sc3cncn23)nn1 (racemic) [Example 7, rac-(2-Cyclopropyl-imidazo[5,1-b]thiazol-3-yl)-[1-(2-methoxy-phenyl)-1H-[1,2,3]triazol-4-yl]-methanol]	50.9 nM	> 10200 nM
CCc1sc2cncn2c1C(O)c1cn(-c2ccc(N3CCOCC3)cc2)nn1 (racemic) [Example 47, rac-(2-Ethyl-imidazo[5,1-b]thiazol-3-yl)-[1-(4-morpholin-4-yl-phenyl)-1H-[1,2,3]triazol-4-yl]-methanol]	44.4 nM	> 10200 nM
OC(c1cn(-c2ccc(OCC3CC3)cc2)nn1)c1c(C2CC2)sc2cncn12 (racemic) [Example 35, rac-(2-Cyclopropyl-imidazo[5,1-b]thiazol-3-yl)-[1-(4-cyclopropylmethoxy-phenyl)-1H-[1,2,3]triazol-4-yl]-methanol]	8.83 nM	> 10200 nM
COC(=O)COc1ccc(-n2cc(C(O)c3c(C4CC4)sc4cncn34)nn2)cn1 (racemic) [Example 75, rac-(5-{4-[(2-Cyclopropyl-imidazo[5,1-b]thiazol-3-yl)-hydroxy-methyl]-[1,2,3]triazol-1-yl}-pyridin-2-yloxy)-acetic acid methyl ester]	40.7 nM	> 10200 nM
Cc1sc2cncn2c1C(O)c1cn(-c2ccccc2)nn1 (racemic) [Example 17, rac-(2-Methyl-imidazo[5,1-b]thiazol-3-yl)-(1-phenyl-1H-[1,2,3]triazol-4-yl)-methanol]	154 nM	> 10200 nM

The remaining lines, values ahead:

IC50 [1]	IC50 [2]	Compound
29.4 nM	> 10200 nM	OC(c1cn(-c2ccc(OCCOCC(F)(F)F)cc2)nn1)c1c(C2CC2)sc2cncn12 (racemic) [Example 312, rac-(2-Cyclopropyl-imidazo[5,1-b]thiazol-3-yl)-(1-{4-[2-(2,2,2-trifluoro-ethoxy)-ethoxy]-phenyl}-1H-[1,2,3]triazol-4-yl)-methanol]
16 nM	> 10200 nM	COC(=O)c1ccc(Cn2cc(C(O)c3c(C4CC4)sc4cncn34)nn2)cc1 (racemic) [Example 297, rac-4-{4-[(2-Cyclopropyl-imidazo[5,1-b]thiazol-3-yl)-hydroxy-methyl]-[1,2,3]triazol-1-ylmethyl}-benzoic acid methyl ester]
34.8 nM	> 10200 nM	C=C(C)c1sc2cncn2c1C(O)c1cn(-c2ccc(OCC3(F)COC3)c(Cl)c2)nn1 (racemic) [Example 299, rac-{1-[3-Chloro-4-(3-fluoro-oxetan-3-ylmethoxy)-phenyl]-1H-[1,2,3]triazol-4-yl}-(2-isopropenyl-imidazo[5,1-b]thiazol-3-yl)-methanol]
7.31 nM	> 10200 nM	CC(C)(O)COc1ccc(-n2cc([C@H](O)c3c(C4CC4)sc4cncn34)nn2)cc1Cl [Example 283, 1-(2-Chloro-4-{4-[(R)-(2-cyclopropyl-imidazo[5,1-b]thiazol-3-yl)-hydroxy-methyl]-[1,2,3]triazol-1-yl}-phenoxy)-2-methyl-propan-2-ol]
20.3 nM	> 10200 nM	N#Cc1ccc(-n2cc(C(O)c3c(C4CC4)sc4cncn34)nn2)cc1O (racemic) [Example 233, rac-4-{4-[(2-Cyclopropyl-imidazo[5,1-b]thiazol-3-yl)-hydroxy-methyl]-[1,2,3]triazol-1-yl}-2-hydroxy-benzonitrile]
15.1 nM	> 10200 nM	COc1c(F)cc(-n2cc(C(O)c3c(C4CC4)sc4cncn34)nn2)cc1Cl (racemic) [Example 288, rac-[1-(3-Chloro-5-fluoro-4-methoxy-phenyl)-1H-[1,2,3]triazol-4-yl]-(2-cyclopropyl-imidazo[5,1-b]thiazol-3-yl)-methanol]
47.2 nM	> 10200 nM	CCc1sc2cncn2c1C(O)c1cn(-c2ccc(S(=O)(=O)NC)cc2)nn1 (racemic) [Example 225, rac-4-{4-[(2-Ethyl-imidazo[5,1-b]thiazol-3-yl)-hydroxy-methyl]-[1,2,3]triazol-1-yl}-N-methyl-benzenesulfonamide]
23.3 nM	> 10200 nM	Oc1cccc(Cn2cc(C(O)c3c(C4CC4)sc4cncn34)nn2)c1 (racemic) [Example 298, rac-3-{4-[(2-Cyclopropyl-imidazo[5,1-b]thiazol-3-yl)-hydroxy-methyl]-[1,2,3]triazol-1-ylmethyl}-phenol]
97.2 nM	7880 nM	OC(c1cnn(-c2ccc3c(c2)OCCO3)c1)c1c(C2CC2)sc2cncn12 (racemic) [Example 222, rac-(2-Cyclopropyl-imidazo[5,1-b]thiazol-3-yl)-[1-(2,3-dihydro-benzo[1,4]dioxin-6-yl)-1H-pyrazol-4-yl]-methanol]
